# Patent US7662748B2, “Formulations comprising triazoles and alkoxylated amines” (Janssen Pharmaceutica, N.V., priority 2002, dated 2010)
# Experiments:
# Erisiphe graminis [1] = experiment: Fungicidal activity versus powdery mildew on wheat plants; format: in vivo, Erisiphe graminis on winter wheat plants, variety Corvus; conditions: day 17, mean of 4 replicates
# Description: • Test model: Winter wheat plants, variety Corvus, were sprayed with the test solutions till run off. Treated plants were incubated in the glasshouse and dusted with Erisiphe graminis conidia after drying. • Test solutions: • 1) aqueous solutions were prepared by diluting a commercial propiconazole formulation “Tilt® 250 EC” until spray solutions were obtained comprising 8, 16, 20, and 24 ppm of propiconazole. • 2) aqueous solutions were prepared comprising of 40, 80, 160, 320, 640, 1280, and 2560 ppm of N,N′,N′-tris(2-hydroxyethyl)-N-cocoalkyl-1,3-diamino-propane (i.e. ethoduomeen C/13). • 3) to aqueous solutions comprising 8 and 16 ppm of propiconazole an amount of “ethoduomeen C/13” was added yielding test solutions wherein the ratio of propiconazole over “ethoduomeen C/13” is 1/160, 1/80, 1/40, 1/20, 1/10 and 1/5.
# The commercial “Tilt® 250 EC” formulation comprises 25% (w/v) of propiconazole dissolved in an aromatic petroleum hydrocarbon liquid mixture.
# On day 17 after dusting the wheat plants with Erisiphe graminis the % inhibition of fungal growth was evaluated.
# Erisiphe graminis [2] = experiment: as above; format: in vivo, Erisiphe graminis on winter wheat plants, variety Corvus; conditions: propiconazole 0, ethoduomeen C/13 16 ppm a.i.; day 17; mean of 4 replicates
Molecule,"% Fungicidal activity versus E. graminis (Erisiphe graminis [1]; propiconazole 8 ppm a.i., ethoduomeen C/13 0) [%]","% Fungicidal activity versus E. graminis (Erisiphe graminis [1]; propiconazole 16 ppm a.i., ethoduomeen C/13 0) [%]","% Fungicidal activity versus E. graminis (Erisiphe graminis [1]; propiconazole 20 ppm a.i., ethoduomeen C/13 0) [%]","% Fungicidal activity versus E. graminis (Erisiphe graminis [1]; propiconazole 24 ppm a.i., ethoduomeen C/13 0) [%]","% Fungicidal activity versus E. graminis (Erisiphe graminis [1]; propiconazole 0, ethoduomeen C/13 40 ppm a.i.) [%]","% Fungicidal activity versus E. graminis (Erisiphe graminis [1]; propiconazole 0, ethoduomeen C/13 80 ppm a.i.) [%]","% Fungicidal activity versus E. graminis (Erisiphe graminis [1]; propiconazole 0, ethoduomeen C/13 320 ppm a.i.) [%]","% Fungicidal activity versus E. graminis (Erisiphe graminis [1]; propiconazole 0, ethoduomeen C/13 640 ppm a.i.) [%]","% Fungicidal activity versus E. graminis (Erisiphe graminis [1]; propiconazole 0, ethoduomeen C/13 1280 ppm a.i.) [%]","% Fungicidal activity versus E. graminis (Erisiphe graminis [1]; propiconazole 0, ethoduomeen C/13 2560 ppm a.i.) [%]",% Fungicidal activity versus E. graminis (Erisiphe graminis [2]) [%]
"CCCC1COC(Cn2cncn2)(c2ccc(Cl)cc2Cl)O1 (centres unmarked) [propiconazole, 1-[[2-(2,4-dichlorophenyl)-4-propyl-1,3-dioxolan-2-yl]methyl]-1H -1,2,4-triazole]",25,50,50,80,,,,,,,
"N,N′,N′-tris(2-hydroxyethyl)-N-cocoalkyl-1,3-diamino-propane [ethoduomeen C/13]",,,,,0,0,0,0,0,0,0
